From article PMC9856672, “SGC-CAMKK2-1: A Chemical Probe for CAMKK2” (Cells, 2023)

Tests used:
[1] = target: T1, TTK (Homo sapiens, UniProt P33981); test: KINOMEscan at 1 μM, TTK; type: binding; conditions: 1000 nM, read-out: Percent Control
T1 construct: purchased Eurofins DiscoverX KINOMEscan
Excerpt: (§1) Supplement cells-12-00287-s001.zip/File S2. KinomeScan data for the CAMKK2 probe and negative control.xlsx, sheet "SGC-CAMKK2-1N" | column: Percent Control

[2] = target: T2, ERK4 (Homo sapiens, UniProt P31152); test: KINOMEscan at 1 μM, ERK4; type: binding; conditions: 1000 nM, read-out: Percent Control
T2 construct: purchased Eurofins DiscoverX KINOMEscan
Excerpt: as §1

[3] = target: T3, PAK6 (Homo sapiens, UniProt Q9NQU5); test: KINOMEscan at 1 μM, PAK6; type: binding; conditions: 1000 nM, read-out: Percent Control
T3 construct: purchased Eurofins DiscoverX KINOMEscan
Excerpt: as §1

[4] = target: T4, KIT(L576P) (Homo sapiens, UniProt P10721, L576P); test: KINOMEscan at 1 μM, KIT(L576P); type: binding; conditions: 1000 nM, read-out: Percent Control
T4 construct: purchased Eurofins DiscoverX KINOMEscan
Excerpt: as §1

[5] = target: T5, PFPK5(P.falciparum) (Plasmodium falciparum, UniProt P61075); test: KINOMEscan at 1 μM, PFPK5(P.falciparum); type: binding; conditions: 1000 nM, read-out: Percent Control
T5 construct: purchased Eurofins DiscoverX KINOMEscan
Excerpt: as §1

[6] = target: T6, PIP5K2B (Homo sapiens, UniProt P78356); test: KINOMEscan at 1 μM, PIP5K2B; type: binding; conditions: 1000 nM, read-out: Percent Control
T6 construct: purchased Eurofins DiscoverX KINOMEscan
Excerpt: as §1

[7] = target: T7, TAOK1 (Homo sapiens, UniProt Q7L7X3); test: KINOMEscan at 1 μM, TAOK1; type: binding; conditions: 1000 nM, read-out: Percent Control
T7 construct: purchased Eurofins DiscoverX KINOMEscan
Excerpt: as §1

[8] = target: T8, YSK4 (Homo sapiens, UniProt Q56UN5); test: KINOMEscan at 1 μM, YSK4; type: binding; conditions: 1000 nM, read-out: Percent Control
T8 construct: purchased Eurofins DiscoverX KINOMEscan
Excerpt: as §1

[9] = target: T9, EPHA4 (Homo sapiens, UniProt P54764); test: KINOMEscan at 1 μM, EPHA4; type: binding; conditions: 1000 nM, read-out: Percent Control
T9 construct: purchased Eurofins DiscoverX KINOMEscan
Excerpt: as §1

[10] = target: T10, PRKD2 (Homo sapiens, UniProt Q9BZL6); test: KINOMEscan at 1 μM, PRKD2; type: binding; conditions: 1000 nM, read-out: Percent Control
T10 construct: purchased Eurofins DiscoverX KINOMEscan
Excerpt: as §1

[11] = target: T11, WNK3 (Homo sapiens, UniProt Q9BYP7); test: KINOMEscan at 1 μM, WNK3; type: binding; conditions: 1000 nM, read-out: Percent Control
T11 construct: purchased Eurofins DiscoverX KINOMEscan
Excerpt: as §1

[12] = target: T12, EPHA5 (Homo sapiens, UniProt P54756); test: KINOMEscan binding assay at 1 μM, EPHA5; conditions: Compound Concentration 1000 nM; read-out: Percent Control
T12 construct: purchased Eurofins DiscoverX KINOMEscan
Excerpt: as §1

[13] = target: T13, HCK (Homo sapiens, UniProt P08631); test: KINOMEscan binding assay at 1 μM, HCK; conditions: Compound Concentration 1000 nM; read-out: Percent Control
T13 construct: purchased Eurofins DiscoverX KINOMEscan
Excerpt: as §1

[14] = target: T14, PAK3 (Homo sapiens, UniProt O75914); test: KINOMEscan binding assay at 1 μM, PAK3; conditions: Compound Concentration 1000 nM; read-out: Percent Control
T14 construct: purchased Eurofins DiscoverX KINOMEscan
Excerpt: as §1

[15] = target: T15, RPS6KA5(Kin.Dom.1-N-terminal) (Homo sapiens, UniProt O75582); test: KINOMEscan binding assay at 1 μM, RPS6KA5(Kin.Dom.1-N-terminal); conditions: Compound Concentration 1000 nM; read-out: Percent Control
T15 construct: RPS6KA5(Kin.Dom.1-N-terminal); purchased Eurofins DiscoverX KINOMEscan
Excerpt: as §1

[16] = target: T16, TIE1 (Homo sapiens, UniProt P35590); test: KINOMEscan binding assay at 1 μM, TIE1; conditions: Compound Concentration 1000 nM; read-out: Percent Control
T16 construct: purchased Eurofins DiscoverX KINOMEscan
Excerpt: as §1

[17] = target: T17, EGFR(L747-S752del, P753S) (Homo sapiens, UniProt P00533, DEL747-752/P753S); test: KINOMEscan 1 μM, EGFR(L747-S752del, P753S); type: binding; conditions: 1000 nM; Entrez EGFR; read-out: Percent Control
T17 construct: purchased Eurofins DiscoverX KINOMEscan
Excerpt: (§2) Supplement cells-12-00287-s001.zip/File S2. KinomeScan data for the CAMKK2 probe and negative control.xlsx, sheet "SGC-CAMKK2-1" | column: Percent Control

[18] = target: T18, KIT(A829P) (Homo sapiens, UniProt P10721, A829P); test: KINOMEscan 1 μM, KIT(A829P); type: binding; conditions: 1000 nM; Entrez KIT; read-out: Percent Control
T18 construct: purchased Eurofins DiscoverX KINOMEscan
Excerpt: as §2

[19] = target: T19, ABL1(F317L)-nonphosphorylated (Homo sapiens, UniProt P00519, F317L); test: KINOMEscan 1 μM, ABL1(F317L)-nonphosphorylated; type: binding; conditions: 1000 nM; Entrez ABL1; read-out: Percent Control
T19 construct: purchased Eurofins DiscoverX KINOMEscan
Excerpt: as §2

[20] = target: T20, PKN1 (Homo sapiens, UniProt Q16512); test: KINOMEscan 1 μM, PKN1; type: binding; conditions: 1000 nM; Entrez PKN1; read-out: Percent Control
T20 construct: purchased Eurofins DiscoverX KINOMEscan
Excerpt: as §2

[21] = target: T21, JAK1(JH1domain-catalytic) (Homo sapiens, UniProt P23458); test: KINOMEscan 1 μM, JAK1(JH1domain-catalytic); type: binding; conditions: 1000 nM; Entrez JAK1; read-out: Percent Control
T21 construct: JAK1(JH1domain-catalytic); purchased Eurofins DiscoverX KINOMEscan
Excerpt: as §2

[22] = target: T22, CAMK1 (Homo sapiens, UniProt Q14012); test: KINOMEscan 1 μM, CAMK1; type: binding; conditions: 1000 nM; Entrez CAMK1; read-out: Percent Control
T22 construct: purchased Eurofins DiscoverX KINOMEscan
Excerpt: as §2

[23] = target: T23, ACVR2A (Homo sapiens, UniProt P27037); test: KINOMEscan 1 μM, ACVR2A; type: binding; conditions: 1000 nM; Entrez ACVR2A; read-out: Percent Control
T23 construct: purchased Eurofins DiscoverX KINOMEscan
Excerpt: as §2

[24] = target: T24, TLK1 (Homo sapiens, UniProt Q9UKI8); test: KINOMEscan 1 μM, TLK1; type: binding; conditions: 1000 nM; Entrez TLK1; read-out: Percent Control
T24 construct: purchased Eurofins DiscoverX KINOMEscan
Excerpt: as §2

[25] = target: T25, LIMK1 (Homo sapiens, UniProt P53667); test: KINOMEscan 1 μM, LIMK1; type: binding; conditions: 1000 nM; Entrez LIMK1; read-out: Percent Control
T25 construct: purchased Eurofins DiscoverX KINOMEscan
Excerpt: as §2

[26] = target: T26, BTK (Homo sapiens, UniProt Q06187); test: KINOMEscan 1 μM, BTK; type: binding; conditions: 1000 nM; Entrez BTK; read-out: Percent Control
T26 construct: purchased Eurofins DiscoverX KINOMEscan
Excerpt: as §2

[27] = target: T27, CLK4 (Homo sapiens, UniProt Q9HAZ1); test: KINOMEscan 1 μM, CLK4; type: binding; conditions: 1000 nM; Entrez CLK4; read-out: Percent Control
T27 construct: purchased Eurofins DiscoverX KINOMEscan
Excerpt: as §2

[28] = target: T28, FLT3(D835V) (Homo sapiens, UniProt P36888, D835V); test: KINOMEscan 1 μM, FLT3(D835V); type: binding; conditions: 1000 nM; Entrez FLT3; read-out: Percent Control
T28 construct: purchased Eurofins DiscoverX KINOMEscan
Excerpt: as §2

[29] = system: FLT3(ITD); test: KINOMEscan 1 μM, FLT3(ITD); type: binding, human; conditions: 1000 nM; Entrez FLT3
Excerpt: as §2

[30] = target: T29, MRCKA (Homo sapiens, UniProt Q5VT25); test: KINOMEscan 1 μM, MRCKA; type: binding; conditions: 1000 nM; Entrez CDC42BPA; read-out: Percent Control
T29 construct: purchased Eurofins DiscoverX KINOMEscan
Excerpt: as §2

[31] = target: T30, PHKG2 (Homo sapiens, UniProt P15735); test: DiscoverX KINOMEscan binding assay at 1 μM, PHKG2; conditions: Compound Concentration 1000 nM, read-out: Percent Control
T30 construct: purchased Eurofins DiscoverX KINOMEscan
Excerpt: as §2

[32] = target: T31, PIK3CA(E542K) (Homo sapiens, UniProt P42336, E542K); test: DiscoverX KINOMEscan binding assay at 1 μM, PIK3CA(E542K); conditions: Compound Concentration 1000 nM, read-out: Percent Control
T31 construct: purchased Eurofins DiscoverX KINOMEscan
Excerpt: as §2

[33] = target: T32, PIK3CA(E545A) (Homo sapiens, UniProt P42336, E545A); test: DiscoverX KINOMEscan binding assay at 1 μM, PIK3CA(E545A); conditions: Compound Concentration 1000 nM, read-out: Percent Control
T32 construct: purchased Eurofins DiscoverX KINOMEscan
Excerpt: as §2

T6 sequence (P78356 whole entry): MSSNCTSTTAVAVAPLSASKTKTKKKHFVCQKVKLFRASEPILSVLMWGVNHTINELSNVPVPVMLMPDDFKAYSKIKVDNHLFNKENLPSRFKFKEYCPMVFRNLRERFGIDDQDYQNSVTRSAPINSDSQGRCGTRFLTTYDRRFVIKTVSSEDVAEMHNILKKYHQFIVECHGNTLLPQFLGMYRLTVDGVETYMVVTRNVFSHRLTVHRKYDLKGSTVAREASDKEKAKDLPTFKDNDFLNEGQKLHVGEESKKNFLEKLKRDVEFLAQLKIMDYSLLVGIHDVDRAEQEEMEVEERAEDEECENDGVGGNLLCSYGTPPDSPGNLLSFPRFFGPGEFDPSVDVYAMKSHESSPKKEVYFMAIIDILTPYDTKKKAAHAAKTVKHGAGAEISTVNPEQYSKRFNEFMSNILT
T16 sequence (P35590 22-1138): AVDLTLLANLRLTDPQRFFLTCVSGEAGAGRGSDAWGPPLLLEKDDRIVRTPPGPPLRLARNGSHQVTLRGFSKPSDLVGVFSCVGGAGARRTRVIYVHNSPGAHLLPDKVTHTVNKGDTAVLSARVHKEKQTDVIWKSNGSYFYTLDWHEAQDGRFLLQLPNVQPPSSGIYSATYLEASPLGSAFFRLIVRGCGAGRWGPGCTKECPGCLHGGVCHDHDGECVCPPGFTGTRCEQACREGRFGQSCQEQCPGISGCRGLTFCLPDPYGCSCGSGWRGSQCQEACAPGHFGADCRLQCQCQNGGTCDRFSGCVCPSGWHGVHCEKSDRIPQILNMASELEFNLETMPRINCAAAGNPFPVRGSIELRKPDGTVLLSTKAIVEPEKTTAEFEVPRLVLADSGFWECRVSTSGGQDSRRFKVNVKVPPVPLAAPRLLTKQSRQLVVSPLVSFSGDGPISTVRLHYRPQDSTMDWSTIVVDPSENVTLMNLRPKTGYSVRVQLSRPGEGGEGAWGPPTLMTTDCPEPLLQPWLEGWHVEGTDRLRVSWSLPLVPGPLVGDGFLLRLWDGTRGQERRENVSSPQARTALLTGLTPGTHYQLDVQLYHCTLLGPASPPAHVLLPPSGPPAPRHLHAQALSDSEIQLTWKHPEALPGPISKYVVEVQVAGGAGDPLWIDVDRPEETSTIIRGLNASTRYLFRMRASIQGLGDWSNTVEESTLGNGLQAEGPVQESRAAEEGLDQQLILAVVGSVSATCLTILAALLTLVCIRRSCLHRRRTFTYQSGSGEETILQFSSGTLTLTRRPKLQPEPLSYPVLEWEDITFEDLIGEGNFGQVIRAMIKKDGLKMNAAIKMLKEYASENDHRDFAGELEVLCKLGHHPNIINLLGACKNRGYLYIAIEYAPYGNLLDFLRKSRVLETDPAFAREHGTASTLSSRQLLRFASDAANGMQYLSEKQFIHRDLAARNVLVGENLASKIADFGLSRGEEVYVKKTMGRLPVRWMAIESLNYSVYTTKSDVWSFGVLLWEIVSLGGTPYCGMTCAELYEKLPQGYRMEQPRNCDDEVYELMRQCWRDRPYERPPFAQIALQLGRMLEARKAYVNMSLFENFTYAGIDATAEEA
T24 sequence (Q9UKI8 whole entry): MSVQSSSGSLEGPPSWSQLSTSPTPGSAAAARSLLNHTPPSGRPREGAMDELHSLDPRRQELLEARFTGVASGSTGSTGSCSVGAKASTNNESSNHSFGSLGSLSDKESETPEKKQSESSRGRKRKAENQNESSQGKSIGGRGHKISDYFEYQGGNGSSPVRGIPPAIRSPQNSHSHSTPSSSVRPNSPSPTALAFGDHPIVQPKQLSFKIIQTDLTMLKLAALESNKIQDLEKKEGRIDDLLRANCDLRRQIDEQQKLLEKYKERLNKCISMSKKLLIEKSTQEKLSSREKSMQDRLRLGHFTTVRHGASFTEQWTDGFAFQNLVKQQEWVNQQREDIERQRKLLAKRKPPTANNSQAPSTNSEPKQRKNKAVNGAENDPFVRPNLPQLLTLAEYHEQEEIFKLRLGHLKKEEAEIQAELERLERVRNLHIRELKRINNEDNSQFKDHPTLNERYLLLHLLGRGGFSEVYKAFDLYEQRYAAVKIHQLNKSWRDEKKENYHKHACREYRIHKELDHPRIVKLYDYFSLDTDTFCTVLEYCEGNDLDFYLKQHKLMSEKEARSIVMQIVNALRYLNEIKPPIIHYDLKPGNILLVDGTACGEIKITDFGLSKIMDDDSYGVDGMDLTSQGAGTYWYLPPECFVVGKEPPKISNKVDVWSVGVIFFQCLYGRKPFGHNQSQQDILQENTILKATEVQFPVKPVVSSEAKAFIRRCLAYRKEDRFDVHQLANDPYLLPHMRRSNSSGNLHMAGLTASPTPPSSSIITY
T14 sequence (O75914 whole entry): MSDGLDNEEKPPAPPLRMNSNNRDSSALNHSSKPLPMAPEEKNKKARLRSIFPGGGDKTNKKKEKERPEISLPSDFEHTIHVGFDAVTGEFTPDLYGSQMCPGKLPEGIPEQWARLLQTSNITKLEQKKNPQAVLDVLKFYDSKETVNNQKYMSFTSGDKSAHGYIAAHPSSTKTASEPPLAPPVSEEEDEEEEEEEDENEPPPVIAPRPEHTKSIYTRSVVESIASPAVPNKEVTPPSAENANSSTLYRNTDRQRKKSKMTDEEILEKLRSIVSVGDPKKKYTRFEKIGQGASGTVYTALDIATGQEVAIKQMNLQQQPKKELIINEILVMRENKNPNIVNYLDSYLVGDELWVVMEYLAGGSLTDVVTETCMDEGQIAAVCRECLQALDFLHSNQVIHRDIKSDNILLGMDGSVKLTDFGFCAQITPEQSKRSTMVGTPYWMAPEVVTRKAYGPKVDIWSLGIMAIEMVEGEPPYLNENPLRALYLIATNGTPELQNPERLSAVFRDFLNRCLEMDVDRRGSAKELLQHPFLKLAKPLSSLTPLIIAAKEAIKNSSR
T13 sequence (P08631 whole entry): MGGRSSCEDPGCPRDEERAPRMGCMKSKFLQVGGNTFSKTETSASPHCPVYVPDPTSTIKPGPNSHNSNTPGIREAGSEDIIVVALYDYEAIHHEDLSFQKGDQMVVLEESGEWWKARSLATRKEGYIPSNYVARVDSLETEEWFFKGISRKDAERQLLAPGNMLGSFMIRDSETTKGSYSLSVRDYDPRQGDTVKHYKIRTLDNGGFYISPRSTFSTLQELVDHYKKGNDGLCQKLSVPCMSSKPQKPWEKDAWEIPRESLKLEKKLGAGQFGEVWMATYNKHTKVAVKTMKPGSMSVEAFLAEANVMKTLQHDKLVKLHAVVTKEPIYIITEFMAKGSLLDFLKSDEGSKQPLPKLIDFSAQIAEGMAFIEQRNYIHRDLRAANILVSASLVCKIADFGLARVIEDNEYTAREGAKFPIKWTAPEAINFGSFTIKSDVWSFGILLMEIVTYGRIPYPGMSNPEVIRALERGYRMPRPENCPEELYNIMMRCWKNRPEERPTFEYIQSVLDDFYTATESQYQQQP
T31 sequence (P42336 whole entry E542K): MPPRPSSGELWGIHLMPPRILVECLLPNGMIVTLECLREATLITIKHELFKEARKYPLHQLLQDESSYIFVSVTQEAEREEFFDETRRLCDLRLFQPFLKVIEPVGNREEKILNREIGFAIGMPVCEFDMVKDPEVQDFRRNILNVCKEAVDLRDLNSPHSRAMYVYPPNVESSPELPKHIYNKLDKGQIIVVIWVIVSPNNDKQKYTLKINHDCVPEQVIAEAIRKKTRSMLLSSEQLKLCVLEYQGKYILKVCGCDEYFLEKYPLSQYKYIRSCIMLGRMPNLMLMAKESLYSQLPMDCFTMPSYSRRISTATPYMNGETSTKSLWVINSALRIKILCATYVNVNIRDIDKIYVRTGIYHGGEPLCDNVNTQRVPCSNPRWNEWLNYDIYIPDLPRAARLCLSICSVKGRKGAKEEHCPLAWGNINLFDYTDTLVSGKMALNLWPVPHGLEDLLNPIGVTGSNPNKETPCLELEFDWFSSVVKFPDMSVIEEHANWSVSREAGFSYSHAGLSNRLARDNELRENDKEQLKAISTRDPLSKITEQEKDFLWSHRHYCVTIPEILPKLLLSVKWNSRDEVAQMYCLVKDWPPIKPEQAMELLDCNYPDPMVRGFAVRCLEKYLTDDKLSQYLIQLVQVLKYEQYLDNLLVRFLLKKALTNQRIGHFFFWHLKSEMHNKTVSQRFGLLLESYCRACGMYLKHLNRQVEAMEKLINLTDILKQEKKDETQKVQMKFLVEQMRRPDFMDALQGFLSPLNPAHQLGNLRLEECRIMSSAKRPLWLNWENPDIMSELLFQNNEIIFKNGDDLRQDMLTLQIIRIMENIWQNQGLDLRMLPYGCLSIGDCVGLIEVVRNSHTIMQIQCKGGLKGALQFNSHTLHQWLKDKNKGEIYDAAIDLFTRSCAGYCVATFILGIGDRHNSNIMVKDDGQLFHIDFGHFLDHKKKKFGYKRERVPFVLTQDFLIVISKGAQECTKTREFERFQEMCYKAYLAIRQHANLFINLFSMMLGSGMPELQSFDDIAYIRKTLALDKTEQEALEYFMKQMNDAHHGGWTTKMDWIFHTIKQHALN
T21 sequence (P23458 854-1154 limits assumed): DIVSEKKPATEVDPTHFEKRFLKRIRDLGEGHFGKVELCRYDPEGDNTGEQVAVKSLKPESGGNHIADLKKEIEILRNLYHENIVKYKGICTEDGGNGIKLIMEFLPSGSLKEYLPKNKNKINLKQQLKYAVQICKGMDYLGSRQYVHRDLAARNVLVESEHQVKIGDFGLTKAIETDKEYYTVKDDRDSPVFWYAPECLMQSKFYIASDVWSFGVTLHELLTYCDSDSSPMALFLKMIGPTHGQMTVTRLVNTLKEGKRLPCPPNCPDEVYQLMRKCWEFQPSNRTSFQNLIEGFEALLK
T5 sequence (P61075 whole entry): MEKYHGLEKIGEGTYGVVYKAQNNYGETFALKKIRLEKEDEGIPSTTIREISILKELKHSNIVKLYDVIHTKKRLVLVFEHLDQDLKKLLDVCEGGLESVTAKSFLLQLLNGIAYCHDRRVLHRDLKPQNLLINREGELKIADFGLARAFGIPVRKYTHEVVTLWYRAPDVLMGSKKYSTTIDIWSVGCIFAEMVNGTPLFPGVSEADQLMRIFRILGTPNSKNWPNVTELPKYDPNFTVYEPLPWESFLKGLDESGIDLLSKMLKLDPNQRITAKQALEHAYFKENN

## O=C(O)c1ccc(-c2coc3ncc(-c4ccccc4)cc23)cc1Cl [SGC-CAMKK2-1N (UNC-YL-83)]
[1]
  remaining binding at 1 µM: 54%
[2]
  remaining binding at 1 µM: 58%
[3]
  remaining binding at 1 µM: 63%
[4]
  remaining binding at 1 µM: 66%
[5]
  remaining binding at 1 µM: 69%
[6]
  remaining binding at 1 µM: 74%
[7]
  remaining binding at 1 µM: 77%
[8]
  remaining binding at 1 µM: 77%
[9]
  remaining binding at 1 µM: 86%
[10]
  remaining binding at 1 µM: 91%
[11]
  remaining binding at 1 µM: 95%
[12]
  remaining binding at 1 µM: 100%
[13]
  remaining binding at 1 µM: 100%
[14]
  remaining binding at 1 µM: 100%
[15]
  remaining binding at 1 µM: 100%
[16]
  remaining binding at 1 µM: 100%

## Cc1cccc(-c2cnc3occ(-c4ccc(C(=O)O)c(C5CCCC5)c4)c3c2)c1 [SGC-CAMKK2-1 (YL-36)]
[17]
  remaining binding at 1 µM: 59%
[18]
  remaining binding at 1 µM: 61%
[19]
  remaining binding at 1 µM: 71%
[20]
  remaining binding at 1 µM: 84%
[21]
  remaining binding at 1 µM: 85%
[22]
  remaining binding at 1 µM: 89%
[23]
  remaining binding at 1 µM: 92%
[24]
  remaining binding at 1 µM: 92%
[25]
  remaining binding at 1 µM: 99%
[26]
  remaining binding at 1 µM: 100%
[27]
  remaining binding at 1 µM: 100%
[28]
  remaining binding at 1 µM: 100%
[29]
  Percent Control: 100%
[30]
  remaining binding at 1 µM: 100%
[31]
  remaining binding at 1 µM: 100%
[32]
  remaining binding at 1 µM: 100%
[33]
  remaining binding at 1 µM: 100%
